Patent US6921821B2, “Antagonists of melanin concentrating hormone receptor” (Abbott Laboratories, priority 2002, dated 2005)
Where a name gives a salt, the structure may show the parent alone.

Experiments:
murine MCHR = target: T1, murine MCHR (Mus musculus, UniProt Q8JZL2); experiment: Assay for release of intracellular calcium (FLIPR, Fluo-4), inhibition of MCH-induced Ca++ flux; type: cell-based; conditions: test compound at a dose of 10 μM, HEK293 cells expressing the murine MCHR, read-out: inhibition of MCH (MCH induced Ca++ flux / fluorescence)
T1 construct: expressed in transfected cells; host or cells: HEK293
T1 sequence (Q8JZL2 whole entry): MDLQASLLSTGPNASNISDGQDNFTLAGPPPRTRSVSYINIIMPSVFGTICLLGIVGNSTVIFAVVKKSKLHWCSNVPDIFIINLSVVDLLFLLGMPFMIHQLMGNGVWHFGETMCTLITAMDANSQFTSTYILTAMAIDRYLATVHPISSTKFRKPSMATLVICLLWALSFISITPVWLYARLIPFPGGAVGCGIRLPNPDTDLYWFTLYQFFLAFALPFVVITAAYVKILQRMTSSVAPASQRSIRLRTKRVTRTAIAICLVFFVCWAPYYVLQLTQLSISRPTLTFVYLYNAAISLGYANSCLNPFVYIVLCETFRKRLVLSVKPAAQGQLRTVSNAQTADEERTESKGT
How it was run: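 HEK293 cells expressing murine MCHR were loaded with Fluo-4AM (2.5 μM) and given compound (40 μM stock in 4% DMSO), with 3 min monitoring for agonism. They were then challenged with mouse MCH (12 nM as added) and FLIPR fluorescence followed 3 min more. % inhibition of MCH-induced Ca++ flux was calculated against baseline and no-compound signals.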

MCH-R1 = MCH-R1 (Mus musculus, UniProt Q8JZL2); experiment: MCH-R1 antagonist activity, comparison of stereoisomers (assay not specified); conditions: qualitative comparison of isomers
MCH-R1, sequence (Q8JZL2 whole entry): as above

SMILES	inhibition at 10 µM (murine MCHR) [%]	MCH-R1 antagonist activity, relative between stereoisomers (MCH-R1)
COc1ccc2oc(=O)cc(NC3CCN(Cc4ccc5c(ccn5C)c4)CC3)c2c1 [II-111, 6-Methoxy-4-[N-methylindole-5-ylmethyl-piperidin-4-ylamino]chromen-2-one]	≥ 50	
COc1ccc2oc(=O)cc(NC3CCN(Cc4ccc5ncccc5c4)CC3)c2c1 [II-112, 6-Methoxy-4-(1-quinolin-6-ylmethyl-piperidin-4-ylamino)-chromen-2-one]	≥ 50	
CC(c1ccc(O)c(F)c1)N1CCC(Nc2cc(=O)oc3ccc(Cl)cc23)CC1 (centres unmarked) [II-113, 6-Chloro-4-{1-[1-(3-fluoro-4-hydroxy-phenyl)-ethyl]-piperidin-4-ylamino}-chromen-2-one]	≥ 50	
N#Cc1ccc2oc(=O)cc(NC3CCN(Cc4ccc5occc5c4)CC3)c2c1 [II-114, 4-(1-Benzofuran-5-ylmethyl-piperidin-4-ylamino)-2-oxo-2H-chromene-6-carbonitrile]	≥ 50	
COc1ccc2oc(=O)cc(NC3CCN(Cc4ccc(OCCCN5CCCCC5)c(Cl)c4)CC3)c2c1 [II-115, 4-{1-[3-Chloro-4-(3-piperidin-1-yl-propoxy)-benzyl]-piperidin-4-ylamino}-6-methoxy-chromen-2-one; Double TFA Salt]	≥ 50	
O=c1cc(NC2CCN(Cc3ccc4c(c3)OCO4)CC2)c2cc(Cl)c(Cl)cc2o1 [II-117, (4-Benzo[1,3]dioxol-5-ylmethyl-piperidin-4-ylamino)-6,7-dichloro-chromen-2-one]	≥ 50	
C[C@H](c1ccc2ccccc2c1)N1CCC(Nc2cc(=O)oc3ccc(Cl)cc23)CC1 [II-119, (R)-6-Chloro-4-[1-(1-naphthalen-2-yl-ethyl)-piperdin-4-ylamino]-chromen-2-one]		more active than II-120
C[C@@H](c1ccc2ccccc2c1)N1CCC(Nc2cc(=O)oc3ccc(Cl)cc23)CC1 [II-120, (S)-6-Chloro-4-[1-(1-naphthalen-2-yl-ethyl)-piperdin-4-ylamino]-chromen-2-one]	≥ 50	
O=c1cc(NC2CC3CCC(C2)N3Cc2ccc3c(c2)OCO3)c2cc(Cl)ccc2o1 (stereo not drawn) [II-122, (exo)-4-(8-Benzo[1,3]dioxol-5-ylmethyl-8-aza-bicyclo[3.2.1]oct-3-ylamino)-6-chloro-chromen-2-one]		more active than the endo isomer II-123
O=c1cc(NC2CCN(Cc3ccc4c(c3)OCO4)CC2)c2cc(OC(F)F)ccc2o1 [II-125, 4-(1-Benzo[1,3]dioxol-5-ylmethyl-piperidin-4-ylamino)-6-difluoromethoxy-chromen-2-one]	≥ 50	

Now from value to compound, other results behind:

inhibition at 10 µM (murine MCHR) [%]	SMILES	MCH-R1 antagonist activity, relative between stereoisomers (MCH-R1)
≥ 50	COc1ccc2oc(=O)cc(NC3CCN(C/C=C/c4ccccc4)CC3)c2c1 [III-1, 6-Methoxy-4-[1-(3-phenyl-allyl)-piperidin-4-ylamino] chromen-2-one]	
≥ 50	O=c1cc(NC2CCN(C/C=C/c3ccccc3Cl)CC2)c2cc(Cl)ccc2o1 [III-2, 6-Chloro-4-{1-[3-(2-chloro-phenyl)-allyl]-piperidin-4-ylamino}-chromen-2-one]	
≥ 50	O=c1cc(NC2CCN(C/C=C/c3ccccc3)CC2)c2cc(Cl)ccc2o1 [III-3, 6-Chloro-4-[1-(3-phenyl-allyl)-piperidin-4-ylamino]-chromen-2-one]	
≥ 50	O=c1cc(NC2CCN(C/C=C/c3ccccc3)CC2)c2cc(Br)ccc2o1 [III-5, 6-Bromo-4-[1-(3-phenyl-allyl)-piperidine-4-ylamino]-chromen-2-one]	
≥ 50	Cc1ccc2oc(=O)cc(NC3CCN(C/C=C/c4ccccc4)CC3)c2c1 [III-6, 6-Methyl-4-[1-(3-phenyl-allyl)-piperidin-4-ylamino]-chromen-2-one]	
≥ 50	O=c1cc(NC2CCN(C/C=C/c3cccc(Cl)c3)CC2)c2ccccc2o1 [III-9, 4-{1-[3-(3-Chloro-phenyl)-allyl]-piperidin-4-ylamino}-chromen-2-one]	
≥ 50	Cc1ccc2oc(=O)cc(NC3CCN(C/C=C/c4ccccc4[N+](=O)[O-])CC3)c2c1 [III-12, 6-Methyl-4-{1-[3-(2-nitro-phenyl)-allyl]-piperidin-4-ylamino}-chromen-2-one]	
≥ 50	O=c1cc(NC2CCN(C/C=C/c3ccccc3F)CC2)c2ccccc2o1 [III-14, 4-{1-[3-(2-Fluoro-phenyl)-allyl]-piperidin-4-ylamino}-chromen-2-one]	
≥ 50	C/C(=C\c1ccccc1)CN1CCC(Nc2cc(=O)oc3ccc(Cl)cc23)CC1 [III-18, 6-Chloro-4-[1-(2-methyl-3-phenyl-allyl)-piperidin-4-ylamino]-chromen-2-one]	
≥ 50	COc1ccccc1/C=C/CN1CCC(Nc2cc(=O)oc3ccc(C)cc23)CC1 [III-19, 4-{1-[3-(2-Methoxy-phenyl)-allyl]-piperidin-4-ylamino}-6-methyl-chromen-2-one]	
≥ 50	O=c1cc(NC2CCN(C/C=C/c3ccccc3)CC2)c2ccccc2o1 [III-24, 4-[1-(3-Phenyl-allyl)-piperidin-4-ylamino]-chromen-2-one]	
≥ 50	O=c1cc(NC2CCN(C/C=C/c3ccccc3F)CC2)c2cc(Cl)ccc2o1 [III-56, 6-Chloro-4-{1-[3-(2-fluoro-phenyl)-allyl]-piperidin-4-ylamino}-chromen-2-one]	
≥ 50	N#Cc1ccc2oc(=O)cc(NC3CCN(C/C=C/c4ccccc4)CC3)c2c1 [III-59, 2-Oxo-4-[1-(3-phenyl-allyl)-piperidin-4-ylamino]-2H-chromene-6-carbonitrile]	
